From US8691760B2, “Peptides, pharmaceutical compositions comprising same and uses thereof” (priority 2009, dated 2014)
Where “and” joins values, the source holds several entries; their conditions need not be identical. Equal entries are not always repeated. Entries after “also recorded” stand apart in the source; their conditions may differ. Where two headings read alike, the source gives them in different places. Ends that are not written are not given here. Peptide text beside a SMILES is read from it.

Legend:
[1] = molecular target: T1, rat recombinant IDE (Rattus norvegicus, UniProt P35559); test: Fluorometric IDE activity assay (InnoZyme Insulysin/IDE Immunocapture Activity Assay Kit, FRET substrate); format: biochemical; details: 16 hours at 37° C.; for IC50: 3 repeated experiments
T1 construct: purchased Calbiochem (InnoZyme Insulysin/IDE Immunocapture Activity Assay Kit) CBA079
Method: For example, one method that may be used (as described in detail in Example 2, of the Examples section which follows) comprises the use of Insulysin/IDE Immunocapture Activity Assay Kit (available e.g. from InnoZyme™, Calbiochem). Using this kit ELISA plates are first coated with the target enzyme (i.e. IDE) and then the plates are incubated with the synthesized peptide. The enzymatic activity is measured in comparison to wells without the peptide using for example a FRET substrate, Mca-[…]-EDDnp (SEQ ID NO: 11). Cleavage of the scissile amide bond between R and K releases the fluorophore from the quenching molecule, Dnp, resulting in an increase in fluorescence. The increase in fluorescence is measured using an excitation wavelength of 320 nm and an emission wavelength of 405 nm.
In order to measure IDE activity, coating of ELISA plates with the target enzyme (i.e. IDE) was carried out. Next, plates were incubated with the selected synthesized peptide candidate and the enzymatic activity was measured as compared to wells without the peptide candidate. This was carried out using InnoZyme™ Insulysin/IDE Immunocapture Activity Assay Kit from Calbiochem (worldwidewebdotmerckbiosciencesdotcom/Products/pdsdotaspquestionmarkcatnoequal CBA079), a specific and sensitive assay for measuring active IDE in cell lysates, tissue extracts and biological fluids.
Peptide ability to inhibit IDE activity was measured using InnoZyme™ Insulysin/IDE Immunocapture activity assay kit (Calbiochem), an affinity purified polyclonal antibody that recognized human, mouse, and rat insulysin, immobilized on a 96-well plate to capture the enzyme. In brief, rat recombinant IDE (1.14 nM) was incubated with increasing amounts of the candidate inhibitors with doses ranging from 1-100 μM for 16 hours at 37° C. and the activity of captured IDE was measured using a FRET substrate, Mca-[…]-EDDnp (SEQ ID NO: 11). Cleavage of the scissile amide bond between R and K released the fluorophore from the quenching molecule, Dnp, resulting in an increase in fluorescence. The increase in fluorescence was measured using an excitation wavelength of 320 nm and an emission wavelength of 405 nm. As a control, the kit used rat recombinant IDE. IC50 were evaluated following three repeated experiments.
Specifically, rat recombinant IDE (1.14 nM) was incubated with different doses of ADT-21 ([…]) for 16 hours at 37° C. and the activity of the captured insulysin (IDE) was measured using a FRET substrate, Mca-[…]-EDDnp (SEQ ID NO: 11) using Florolog with the following parameters Ex=320 nm, Gm=405 nm, Slit=2, Maximum trails=10, Integration time=1, Target standard deviation=1%.

[2] = molecular target: IDE (Homo sapiens, UniProt P14735); test: Blocking of VZV gE interaction with IDE; format: binding; details: data not shown
[3] = molecular target: IDE (Rattus norvegicus, UniProt P35559); test: In vitro insulin degradation assay (bovine insulin + IDE, insulin ELISA); format: biochemical; details: ADT21 0.2 nM; insulin 0.87 nM, IDE 1.14 nM, 16 hours at 37° C.
Method: Insulin (0.87 nM) isolated from bovine pancreas (SIGMA) was incubated for 16 hours at 37° C. in the presence or absence of IDE (1.14 nM) together with the inhibitors (0.002-0.2 nM). The levels of insulin degradation were analyzed using mouse insulin ELISA kit (Mercodia).
In order to verify that ADT21 reduces degradation of insulin by IDE, inventors incubated bovine insulin for 16 hours at 37° C. with or without IDE (1.14 nM) along with ADT21. The levels of insulin degradation were analyzed using a mouse insulin ELISA kit (as described in the “materials and experimental procedures” section above). […] Therefore, inventors speculated that the use of this inhibitor in vivo would delay insulin degradation without preventing IDE activity.

[4] = system: NOD mice; test: NOD mouse model of insulin dependent diabetes mellitus, nasal administration, blood glucose / diabetes onset; format: in vivo
Description: (§1) A NOD mouse model has been used as previously described as a model for insulin dependent diabetes mellitus (IDDM) [Atkinson et al., (1990) Diabetes 39, 933-937]. Diabetes in NOD (NOD/ShiLtJ) mice is characterized by insulitis and marked decreases in pancreatic insulin content that occurred in females at about 15 weeks of age. The animals were monitored carefully when receiving the different treatments. Onset of diabetes was marked by moderate glycosuria and by non-fasting plasma glucose higher than 250 mg/dl.
(§2) 12 week old NOD mice were divided into two groups of 10-12 mice each, receiving, every other day, nasal administration of 10 μl of the respective peptide (3.76 μg/kg) or control PBS.
Mice were monitored for blood glucose levels weekly using glucose test strip (Elite, BAYER).

[5] = system: NOD mice; test: Blood insulin levels in NOD mice at 30 weeks (HTRF Insulin assay); format: in vivo, mouse; details: serum
Description: as §1, §2
Mice were monitored for insulin blood levels at 30 week using HTRF® Insulin assay (Cisbio bioassays).

[6] = system: NOD mice; test: Degree of insulitis, histological analysis of the pancreas of NOD mice; format: in vivo, mouse; details: NOD mice at 30 weeks, vs PBS-treated group
Description: Randomly selected animals from each group (at 30 weeks) were sacrificed and the pancreas of each was examined in a double-blind fashion for insulitis using histological analysis of the pancreas as previously described [Frenkel et al. (2003) J Immunol 171, 6549-6555]. Six to ten islets per mouse were individually scored by two independent observers using a semi-quantitative scale ranging from 0-4 as follows: 0, normal islet with no sign of T cell infiltration; 1, islet associated with perivascular, periductal leukocytic infiltration only; 2, more extensive peri-islet infiltration, but with lymphocytes with less than 25% islet destruction; 3 more than 25% islet destruction; and 4, complete islet destruction.

[7] = system: NOD mice; test: IGF-1 blood level in NOD mice at 30 weeks (AssayMax mouse IGF1 kit); format: in vivo
Description: NOD mice were monitored for the blood level of Insulin growth factor 1 (IGF-1) at 30 weeks using AssayMax mouse IGF1 kit.

[8] = system: splenocytes obtained from NOD mice; test: IFN-γ and IL-17 secretion from splenocytes of ADT21-treated NOD mice (ELISA); format: in vivo, mouse; details: splenocytes of treated NOD mice (30 weeks), incubated with insulin 48 hours
Method: Splenocytes were obtained from NOD mice at the age of 30 weeks. Splenocytes were obtained from both control and ADT21-treated mice. Splenocytes were cultured in T cell medium buffer and plated at 1×10^6 cells per well with and without bovine insulin (Sigma) for 48 hours as previously described [Frenkel et al. (2003) J Immunol 171, 6549-6555].
(§3) Secretions of IFN-γ and IL-17 were measured in 48 hour cultured supernatants by ELISA. Briefly, 96 well plates were coated overnight with 1.5 μg/ml capture antibody (R&D Systems). Supernatants (as described above) were incubated overnight and detection biotinylated antibody (1 μg/ml, R&D Systems) was added for 1 hour. Plates were covered for 30 minutes with avidin-HRP conjugate and […] was used as a substrate for color development. 1M H2SO4 was used as a stop solution. Plates were measured using an ELISA plate reader at 405 nm.

[9] = system: CD4+ T-cells; test: Co-culture of CD4+ T-cells of insulin-immunized NOD mice with spleen cells, IFN-γ and IL-17 ELISA; format: cell-based, mouse; details: co-culture with 10 μg/ml insulin, with or without 100 nM ADT21, 48 h
Method: as §3
NOD mice were immunized subcutaneously (s.c.) with bovine insulin (SIGMA) (n=6-7). 10 days later, CD4+ T-cells were isolated from the spleens of these mice using magnetic beads for negative selection (Miltenyi Biotec). The CD4+ T cells were co-cultured at a concentration of 1×10^6 cells/well in 96-well plates at a ratio of 1:1 with cells obtained from spleens of non immunized NOD mice (n=5). The co-culture was incubated with 10 μg/ml insulin with or without 100 nM ADT21. Supernatants were collect after 48 h of co-culture for cytokine measurements by ELISA for IL-17 and IFN-γ.

[10] = IC50, rat recombinant IDE 1.14 nM, FRET substrate Mca-GGFLRKHGQ-EDDnp

T1 sequence (P35559 whole entry): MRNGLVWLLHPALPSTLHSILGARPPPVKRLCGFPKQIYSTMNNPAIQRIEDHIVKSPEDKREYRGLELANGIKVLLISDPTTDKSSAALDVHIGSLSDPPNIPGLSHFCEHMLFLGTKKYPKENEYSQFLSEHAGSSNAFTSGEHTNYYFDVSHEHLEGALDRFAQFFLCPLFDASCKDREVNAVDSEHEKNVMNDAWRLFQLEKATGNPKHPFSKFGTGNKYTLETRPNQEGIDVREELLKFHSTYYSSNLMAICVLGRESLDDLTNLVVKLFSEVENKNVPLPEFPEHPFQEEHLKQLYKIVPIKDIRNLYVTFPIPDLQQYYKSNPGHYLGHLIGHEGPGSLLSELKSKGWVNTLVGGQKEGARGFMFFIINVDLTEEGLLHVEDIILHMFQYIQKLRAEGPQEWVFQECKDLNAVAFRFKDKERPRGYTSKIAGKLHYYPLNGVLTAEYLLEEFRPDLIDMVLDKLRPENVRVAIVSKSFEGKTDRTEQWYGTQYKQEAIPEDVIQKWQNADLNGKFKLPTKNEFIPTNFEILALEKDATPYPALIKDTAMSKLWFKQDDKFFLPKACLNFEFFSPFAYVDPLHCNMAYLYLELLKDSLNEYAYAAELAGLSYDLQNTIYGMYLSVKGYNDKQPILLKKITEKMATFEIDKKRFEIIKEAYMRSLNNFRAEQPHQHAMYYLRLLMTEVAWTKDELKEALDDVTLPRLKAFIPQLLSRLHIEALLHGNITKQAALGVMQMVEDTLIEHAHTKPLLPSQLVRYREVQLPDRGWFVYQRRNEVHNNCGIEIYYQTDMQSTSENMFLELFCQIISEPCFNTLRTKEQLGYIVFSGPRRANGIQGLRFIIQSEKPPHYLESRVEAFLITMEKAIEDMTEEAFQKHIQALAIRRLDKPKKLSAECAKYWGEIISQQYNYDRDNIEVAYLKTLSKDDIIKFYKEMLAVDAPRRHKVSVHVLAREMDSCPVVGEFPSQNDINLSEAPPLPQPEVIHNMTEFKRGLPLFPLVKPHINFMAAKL
IDE (Rattus norvegicus, UniProt P35559), sequence (P35559 whole entry): as above

Row | Molecule | IC50 [1, 10] | also measured
1 | KCNTGSGGSSLANFDDLVHSSNN [ADT23] | 616 nM | 
2 | VLRYDDFHTD [ADT1] | 145 nM | 
3 | HSQGGSGGSSVLRYDDFHTD [ADT71] | 1390 nM | 
4 | HSQGGSGGSSFVQWDDLMN [ADT24] | 175 nM | 
5 | VZV gE (24-50): synthetic peptide corresponding to amino acids 24-50 of VZV gE (ITNPVRASVLRYDDFHTDEDKLDTNSV; A peptide sequence derived from VZV gE (24-50)) |  | blocking of VZV gE interaction with IDE [2]: blocked VZV gE interaction with IDE in a concentration dependent manner
6 | EALYLVCG [INS, reference compound] | 465 nM | 
7 | LANFDDLVHSSNN [ADT3] | 788 nM | 
8 | EALYDDLVCG [ADT2] | 230 nM | 
9 | HSQGGSGGSSEALYDDLVCG [ADT72] | 118 nM | 
10 | ITNPGSGGSSEALYDDLVCG [ADT41] | 331 nM | 
11 | N[C@@H](CC(=O)O)C(=O)N[C@@H](CC(=O)O)C(=O)O [ADT-31, DD] (H-Asp-Asp-OH) |  | IC50 ([1]; rat recombinant IDE 1.14 nM, FRET substrate Mca-[…]-EDDnp, read-out: IC50): 736 nM
12 | ITNPGSGGSSLANFDDLVHSSNN [ADT42] | 199 nM | 
13 | FVNQGSGGSSVLRYDDFHTD [ADT51] | 494 nM | 
14 | VLRYNNFHTD [ADT5N] |  | inhibition of IDE activity (in words) ([1]; rat recombinant IDE 1.14 nM): prevented the inhibition of IDE
15 | ITNPVRASVLRYDDFHTD [VZV, reference compound] | 450 nM | 
16 | ITNPGSGGSSVLRYDDFHTD [ADT21] | 100 nM and 10 to 200 nM | inhibition of IDE activity (in words) ([1]; rat recombinant IDE 1.14 nM): dose dependent and high efficacy in inhibition of IDE activity; also recorded: inhibits IDE activity in a dose dependant manner; reduction of insulin degradation by IDE [3]: 400%; age at first conversion to diabetes ([4]; NOD mice treated from 12 weeks, every other day, 3.76 μg/kg (94 ng/day), untreated: 15 weeks): 20 weeks; behavioral changes that might indicate toxicity (body weight, eating habits, tail tone, mobility) ([4]; NOD mice, every other day): no behavioral changes; animals remaining disease-free at 30 weeks ([4]; NOD mice, every other day from 12 weeks, 71% of control mice diabetic): 75%; disease progression (in words) ([4]; NOD mice, every other day, vs PBS, P<0.05): significantly delayed; blood insulin level relative to reference NOD mice ([5]; printed: compared to sick NOD mice): 62%; increase in blood insulin ([5]; vs control group): about 400%; infiltration of T cells in pancreatic islets (insulitis) [6]: significantly less infiltration of T cells; toxic effect related to IGF1 elevation ([7]; IGF1 below the basal level (about 1000 ng/ml in wild type mice)): no toxic effect was observed; IGF1 blood level ([7]; NOD mice at 30 weeks, control NOD mice 33 ng/ml): 440 ng/mL; reduction in the levels of IL-17 [8]: 52%; release of IFN-γ ([9]; p<0.01): dose dependant reduction; release of IL-17 ([9]; p<0.05): dose dependant reduction
17 | ITNPGSGGSSKLVFDDFAED [ADT44] | 545 nM | 
18 | KCNTGSGGSSVLRYDDFHTD [ADT61] | 824 nM | 
19 | KLVFDDFAED [ADT5, KLVFDDFAED] | 552 nM | 
20 | DAEFGSGGSSKLVFDDFAED [ADT25] | 604 nM | 
21 | DAEFGSGGSSEALYDDLVCG [ADT82] | 438 nM | 
